Species: Rattus norvegicus
Assay: DrugMatrix - Regimen: Daily Repeat
Assay type: toxicity, organism-based, Sprague-Dawley
Parameters: regimen Daily Repeat, gender Male, age 6-8 weeks
Conditions: in vivo, po, route oral GAVAGE, vehicle .5 % CMC; for ABSOLUTE BASOPHIL / ABSOLUTE EOSINOPHIL / ABSOLUTE LYMPHOCYTE / ABSOLUTE MONOCYTE / ABSOLUTE SEGMENTED NEUTROPHIL / BASOPHIL / EOSINOPHIL / ERYTHROCYTE COUNT / HEMATOCRIT / HEMOGLOBIN / LEUKOCYTE COUNT / LYMPHOCYTE / MEAN CORPUSCULAR HEMOGLOBIN / MEAN CORPUSCULAR HEMOGLOBIN CONCENTRATION / MEAN CORPUSCULAR VOLUME / MONOCYTE / NEUTROPHIL / NUCLEATED RED BLOOD CELLS / PLATELET COUNT: tissue Blood; for ALANINE AMINOTRANSFERASE / ALBUMIN / ALKALINE PHOSPHATASE / ASPARTATE AMINOTRANSFERASE / BLOOD UREA NITROGEN / CARBON DIOXIDE / CHLORIDE / CHOLESTEROL / CREATINE PHOSPHOKINASE / CREATININE / GLUCOSE / LACTATE DEHYDROGENASE / LIPASE / PHOSPHORUS / POTASSIUM / SODIUM / TOTAL BILIRUBIN / TOTAL PROTEIN / URIC ACID: tissue Plasma
[1] = 0 mg/kg, 72 h, dose level Control, time 3 day
[2] = 0 mg/kg, 120 h, dose level Control, time 5 day
[3] = 250 mg/kg, 72 h, dose level High, time 3 day

In the case of C#C[C@]1(O)CC[C@H]2[C@@H]3CCc4cc(OC)ccc4[C@H]3CC[C@@]21C [MESTRANOL], the “ABSOLUTE BASOPHIL” value [1] is reported as 0 CELLS/uL, the “ABSOLUTE EOSINOPHIL” value [1] is reported as 0 CELLS/uL and the “ABSOLUTE LYMPHOCYTE” value [1] is reported as 12269.67 CELLS/uL. For the same compound, the “ABSOLUTE MONOCYTE” value [1] was 160.33 CELLS/uL, the “ABSOLUTE SEGMENTED NEUTROPHIL” value [1] was 970 CELLS/uL and the BASOPHIL [1] was 0%. For the same compound, the EOSINOPHIL [1] was 0%, the “ERYTHROCYTE COUNT” value [1] was 5.76 x10E6/uL and the HEMATOCRIT [1] was 36.57%. The HEMOGLOBIN [1] was 14.22 G/DL, the “LEUKOCYTE COUNT” value [1] was 13.4 x10E3/uL and the LYMPHOCYTE [1] was 91.67%. The “MEAN CORPUSCULAR HEMOGLOBIN” value [1] was 24.67 pg, the “MEAN CORPUSCULAR HEMOGLOBIN CONCENTRATION” value [1] was 38.85 G/DL and the “MEAN CORPUSCULAR VOLUME” value [1] was 63.52 fL. The MONOCYTE [1] was 1.17%, the NEUTROPHIL [1] was 7.17% and the “NUCLEATED RED BLOOD CELLS” value [1] was 0.33 /100WBC. The “PLATELET COUNT” value [1] was 1250.83 x10E3/uL, the “ALANINE AMINOTRANSFERASE” value [1] was 49.17 u/L and the ALBUMIN [1] was 4.33 G/DL. For the same compound, the “ALKALINE PHOSPHATASE” value [1] was 378.5 u/L, the “ASPARTATE AMINOTRANSFERASE” value [1] was 82.17 u/L and the “BLOOD UREA NITROGEN” value [1] was 15 mg/dL. The “CARBON DIOXIDE” value [1] was 34.33 mmol/L, the CHLORIDE [1] was 99.17 MEQ/L and the CHOLESTEROL [1] was 71.17 mg/dL. For the same compound, the “CREATINE PHOSPHOKINASE” value [1] was 258.67 u/L, the CREATININE [1] was 0.18 mg/dL and the GLUCOSE [1] was 142.67 mg/dL. For the same compound, the “LACTATE DEHYDROGENASE” value [1] was 154.33 u/L, the LIPASE [1] was 9 u/L and the PHOSPHORUS [1] was 11.67 mg/dL. The POTASSIUM [1] was 7.13 MEQ/L, the SODIUM [1] was 142.22 MEQ/L and the “TOTAL BILIRUBIN” value [1] was 0.18 mg/dL. The “TOTAL PROTEIN” value [1] was 5.77 G/DL, the “URIC ACID” value [1] was 1.55 mg/dL and the “ABSOLUTE BASOPHIL” value [2] was 0 CELLS/uL. For the same compound, the “ABSOLUTE EOSINOPHIL” value [2] was 23.33 CELLS/uL, the “ABSOLUTE LYMPHOCYTE” value [2] was 14943.67 CELLS/uL and the “ABSOLUTE MONOCYTE” value [2] was 32 CELLS/uL. For the same compound, the “ABSOLUTE SEGMENTED NEUTROPHIL” value [2] was 1084.33 CELLS/uL, the BASOPHIL [2] was 0% and the EOSINOPHIL [2] was 0.17%. For the same compound, the “ERYTHROCYTE COUNT” value [2] was 5.71 x10E6/uL, the HEMATOCRIT [2] was 35.28% and the HEMOGLOBIN [2] was 14.27 G/DL. For the same compound, the “LEUKOCYTE COUNT” value [2] was 16.08 x10E3/uL, the LYMPHOCYTE [2] was 93% and the “MEAN CORPUSCULAR HEMOGLOBIN” value [2] was 25.02 pg. The “MEAN CORPUSCULAR HEMOGLOBIN CONCENTRATION” value [2] was 40.43 G/DL, the “MEAN CORPUSCULAR VOLUME” value [2] was 61.82 fL and the MONOCYTE [2] was 0.17%. For the same compound, the NEUTROPHIL [2] was 6.67%, the “NUCLEATED RED BLOOD CELLS” value [2] was 0.33 /100WBC and the “PLATELET COUNT” value [2] was 1274 x10E3/uL. For the same compound, the “ALANINE AMINOTRANSFERASE” value [2] was 54.17 u/L, the ALBUMIN [2] was 4.22 G/DL and the “ALKALINE PHOSPHATASE” value [2] was 373.17 u/L. The “ASPARTATE AMINOTRANSFERASE” value [2] was 81.83 u/L, the “BLOOD UREA NITROGEN” value [2] was 16.67 mg/dL and the “CARBON DIOXIDE” value [2] was 30.33 mmol/L. For the same compound, the CHLORIDE [2] was 99 MEQ/L, the CHOLESTEROL [2] was 71 mg/dL and the “CREATINE PHOSPHOKINASE” value [2] was 273.5 u/L. The CREATININE [2] was 0.22 mg/dL, the GLUCOSE [2] was 141.83 mg/dL and the “LACTATE DEHYDROGENASE” value [2] was 153.67 u/L. For the same compound, the LIPASE [2] was 10.33 u/L, the PHOSPHORUS [2] was 11.38 mg/dL and the POTASSIUM [2] was 7.08 MEQ/L. The SODIUM [2] was 142.75 MEQ/L, the “TOTAL BILIRUBIN” value [2] was 0.18 mg/dL and the “TOTAL PROTEIN” value [2] was 6.1 G/DL. For the same compound, the “URIC ACID” value [2] was 1.67 mg/dL, the “ABSOLUTE BASOPHIL” value [3] was 0 CELLS/uL and the “ABSOLUTE EOSINOPHIL” value [3] was 55.33 CELLS/uL. For the same compound, the “ABSOLUTE LYMPHOCYTE” value [3] was 13434.33 CELLS/uL, the “ABSOLUTE MONOCYTE” value [3] was 105 CELLS/uL and the “ABSOLUTE SEGMENTED NEUTROPHIL” value [3] was 1338.67 CELLS/uL. For the same compound, the BASOPHIL [3] was 0%, the EOSINOPHIL [3] was 0.33% and the “ERYTHROCYTE COUNT” value [3] was 5.62 x10E6/uL. The HEMATOCRIT [3] was 34.97%, the HEMOGLOBIN [3] was 13.77 G/DL and the “LEUKOCYTE COUNT” value [3] was 14.93 x10E3/uL. The LYMPHOCYTE [3] was 89.67%, the “MEAN CORPUSCULAR HEMOGLOBIN” value [3] was 24.5 pg and the “MEAN CORPUSCULAR HEMOGLOBIN CONCENTRATION” value [3] was 39.37 G/DL. For the same compound, the “MEAN CORPUSCULAR VOLUME” value [3] was 62.23 fL, the MONOCYTE [3] was 0.67% and the NEUTROPHIL [3] was 9.33%. For the same compound, the “NUCLEATED RED BLOOD CELLS” value [3] was 0 /100WBC, the “PLATELET COUNT” value [3] was 1230 x10E3/uL and the “ALANINE AMINOTRANSFERASE” value [3] was 46.67 u/L. For the same compound, the ALBUMIN [3] was 4.03 G/DL, the “ALKALINE PHOSPHATASE” value [3] was 693.33 u/L and the “ASPARTATE AMINOTRANSFERASE” value [3] was 67.67 u/L. The “BLOOD UREA NITROGEN” value [3] was 10.33 mg/dL, the “CARBON DIOXIDE” value [3] was 32 mmol/L and the CHLORIDE [3] was 102.67 MEQ/L. The CHOLESTEROL [3] was 11.33 mg/dL, the “CREATINE PHOSPHOKINASE” value [3] was 168.67 u/L and the CREATININE [3] was 0.16 mg/dL. The GLUCOSE [3] was 157 mg/dL, the “LACTATE DEHYDROGENASE” value [3] was 250.33 u/L and the LIPASE [3] was 7.33 u/L. For the same compound, the PHOSPHORUS [3] was 11.57 mg/dL, the POTASSIUM [3] was 6.36 MEQ/L and the SODIUM [3] was 145.73 MEQ/L. For the same compound, the “TOTAL BILIRUBIN” value [3] was 0.23 mg/dL and the “TOTAL PROTEIN” value [3] was 5.73 G/DL.

Source: ChEMBL document CHEMBL3885881, “DrugMatrix”
